Values after ≈ are worked out from the molar mass of the structure shown. Active and inactive are the calls of the source. The rule behind the calls is not given here.
Key:
KB = test: Cytotoxicity against human KB cells; assay type: functional
[1] = Induction of DNA scission activity in at 25 ug/mL
BC1 = test: Cytotoxicity against human BC1 cells; assay type: functional, cell-based
U-373MG ATCC = test: Cytotoxicity against human U373 cells; assay type: functional, cell-based
ZR-75-1 = test: Cytotoxicity against human ZR-75-1 cells; assay type: functional, cell-based
LNCaP = test: Cytotoxicity against human LNCAP cells; assay type: functional, cell-based
Lu1 = test: Cytotoxicity against human Lu1 cells; assay type: functional, cell-based

Activity [1]	SMILES	EC50 (KB; read-out: ED50 (the source's name)) [µg/mL]	Activity (BC1)	Activity (U-373MG ATCC)	Activity (ZR-75-1)	Activity (KB)	Activity (LNCaP)	Activity (Lu1)
inactive	CO[C@H]1CC(=O)C=CC[C@]1(O)/C=C\c1ccccc1 [MIMOSIFOLENONE]	3.3 (≈ 12.8 µM)	–	–	–	–	–	–
–	C=C[C@H](c1ccccc1)c1cc(OC)c(O)cc1OC	–	inactive	inactive	inactive	inactive	inactive	inactive
